Results as given in patent US8445502B2, “Pharmaceutical formulations comprising salts of a protein kinase inhibitor and methods of using same” (Astex Pharmaceuticals, Inc., priority 2007, dated 2013).
pIC50: −log10 of the molar value. Read-outs that look alike come from different tables or passages of the source.

Assays:
[1] = Solubility of MP470 and its salts (Table 2); type: physicochemical
[2] = in vivo; conditions: both, beagle, dog, iv
Method: The purpose of these studies was to determine the highest level of MP470 free base that can be administered intravenously to dogs without causing extreme illness, maximum tolerated dose (MTD). In both studies a single male and a single female beagle dog were injected intravenously with MP470.
In the second study we tested doses of 0.625, 1.25, 2.5, 5, 10, and 20 mg/kg MP470 in 1 male and 1 female beagle dog with 48-96 hrs between dose escalations, with the exception of 11 days between dose 5 and 6. Additionally, in this study approximately 5-10 second electrocardiograph (ECG) tracings in a lead II configuration were obtained from each dog prior to each dose, approximately 20 minutes after the start of dosing, and immediately after completion of dosing.

[3] = test system: A549 lung cancer cells; type: in vivo; conditions: for tumor growth rate: qd×5×3 wk (vehicle 43)
Method: MP470 and MP470 HCl were tested against different tumor types in athymic nude mice as summarized below (Table 8). Various formulations and routes were evaluated. HT-29 colorectal cancer cells and SB-CL2 melanoma cells were implanted subcutaneously, while A549 lung cancer cells, MiaPaCa-2 pancreatic cancer cells, TT medullary thyroid cancer cells, and OVCAR-3 ovarian cancer cells were implanted […] in the hind flank of mice. All animals were allowed to develop medium-sized (80-125 mg) tumors, before initiation of dosing. Tumor volume and mouse bodyweight were followed over the course of the study.
A549 Lung Cancer Model—In 40 nude mice implanted intradermally with A549 lung cancer cells, animals were dosed with vehicle orally, MP470 in 100% corn oil orally, or 5-FU in sterile saline IP. […] […] While MP470 reduced tumor growth rates, treatment of these cells with 5-FU reduced the overall tumor growth rate per day further to 19.5 mm3/d on Day 26.
To determine whether MP470.HCl in combination with carboplatin increased the anti-tumor activity in xenograft tumors growing in vivo, the agents were administered alone and in combination and tumor growth was monitored. MP470.HCl (50 mg/kg) was combined with carboplatin (30 mg/kg) alone or carboplatin with taxol (20 mg/kg).

[4] = test system: γ-H2AX levels in OVCAR-3 (ovarian carcinoma) cells; test: DNA damage by γ-H2AX levels; type: cell-based; conditions: single agent 10 μM; control 0.5% DMSO medium
Method: OVCAR-3 (ovarian carcinoma) cells were treated with MP470 (10 μM), MP470.HCl (10 μM), and/or topotecan (10 μM).

[5] = Single-dose pharmacokinetics in rat (Table 10); type: in vivo
From the text: MP470 free base has a relative bioavailability of […] as compared to the HCl salt.

[6] = test system: A549 NSCLC cells; test: Sensitization of NSCLC cells to carboplatin; type: cell-based; conditions: Homo sapiens; A549, single agent
Method: (§1) The non-small cell lung cancer cell lines A549 and NCI-H647 were used for these experiments. […] The IC50 concentrations observed for carboplatin against both of these cell lines was consistent with this.
(§2) Two sub-IC50 doses of MP470.HCl were tested in combination with carboplatin to evaluate possible synergism between these agents and consequently a lower IC50 value for carboplatin in each of the cell lines.
(§3) MP470.HCl was able to dramatically decrease the IC50 of carboplatin in these cells.

[7] = test system: NCI-H647 NSCLC cells; test: Sensitization of NSCLC cells to carboplatin; type: cell-based; conditions: Homo sapiens; NCI-H647, single agent
Method: as §1, §2, §3

[8] = test system: OVCAR-3 cells; test: OVCAR-3 cell proliferation; type: cell-based; conditions: Homo sapiens
Method: The IC50 for MP470.HCl on OVCAR-3 cells proliferation was 0.9 μM (FIG. 4). It appears to have a cytostatic effect on cancer cells in addition to being cytotoxic.

[9] = in vivo; conditions: rat; for severely toxic dose / severely toxic dose (STD): 28 days
Method: In a chronic tolerability study of MP470 hydrochloride salt in the rat, the animals were dosed 20, 60, 100 or 200 mg/kg/d (males) and 6, 20, 60 and 100 mg/kg/d (females) daily for 28 days. One female rat died after 5 doses at 100 mg/kg/d, however the it was not clear if this was related to the drug. Two additional female rats died on days 28 and 42 (control and 60 mg/kg/d) possibly due the trauma induced by repeated blood collection. There were no clinical signs of severe toxicity prior to deaths. The clinical abnormalities included hunched posture, soft feces and sporadic occurrence of hair loss. […] Although all animals gained weight during the study, the relative gain was lower in the males at 200 mg/kg/d (70% control) and females at 60 and 100 mg/kg/d (83 and 57% control). […] There were signs of recovery after cessation of dosing. There were no drug related adverse ophthalmologic effects or change hematology parameters. Significant clinical chemistry changes included decreases in glucose and triglyceride levels in males at 200 mg/kg/d, and alterations in cholesterol, troponin-1 and alkaline phosphatase in females (60 and 100 mg/kg/d). There was no correlative histopathology for these alterations. There were no drug related adverse changes in urinalysis or organ weight changes. There were sporadic alterations in organ weights but without corresponding microscopic pathology. […] There was adequate systemic exposure in both sexes; however the exposure was not dose-proportional (lower at higher doses). At all doses exposure to females was higher than that in males and exposure on day 27 was higher than that on day 1. There was substantial variability in the half-lives and ranged from 2 to 8 hours. The no observed effect level (NOEL) was 60 mg/kg/d (360 mg/m2/d) for males and 20 mg/kg/d (120 mg/m2/d) for females. In the absence of clear target organ toxicity or signs of severe toxicity a severely toxic dose (STD) could not be calculated. STD is likely to be higher than 100 mg/kg/d for females and 200 mg/kg/d for the males.

[10] = in vivo; conditions: dog
Method: Two groups of dogs, each consisting of one male and one female, received alternating escalating single doses of 30, 60, 240, 1000, and 2000 mg/kg of the test article. MP470.HCl was administered by capsule. […] No test article related mortalities or clinical signs of toxicity were observed. Test article related effects were limited to emesis following administration of 1000 and 2000 mg/kg doses. Single oral dose NOEL was determined to be 240 mg/kg and the acute oral MTD was 2000 mg/kg (highest dose tested).

[11] = 50 mM PBS buffer, pH 7, aqueous buffer, 50 mM PBS buffer, pH 7, read-out: Solubility (50 mM PBS buffer, pH 7, Exp. 15)
[12] = water, read-out: Solubility in water
[13] = Rat, 100 mg/kg PO, Dry Blend, hydrochloride, 100 mg/kg

S=C(NCc1ccc2c(c1)OCO2)N1CCN(c2ncnc3c2oc2ccccc23)CC1 [MP470, 4-[1]benzofuro[3,2-d]pyrimidin-4-yl-N-(1,3-benzodioxol-5-ylmethyl)piperazine-1-carbothioamide]
Solubility [1, 11]: 1.22 µg/mL
Solubility [1, 12]: 4.94 µg/mL
MTD at 0.5 h [2]: 10 mg/kg
Outcome: tumor growth ([3]; A549 lung, MP470 PO 50, 100, 200 mg/kg, (qd × 5) × 2 w, corn oil): no apparent dose relationship
tumor growth rate ([3]; Day 26, 50 mg/kg oral in corn oil): 28.3 mm3/d
tumor growth rate ([3]; Day 26, 100 mg/kg oral in corn oil): 34.9 mm3/d
tumor growth rate ([3]; Day 26, 150 mg/kg oral in corn oil): 28.1 mm3/d
Increase in DNA damage (γ-H2AX) over control [4]: did not cause DNA damage
Cmax ([5]; Rat, 100 mg/kg PO, Dry Blend): 710 ng/mL
Tmax ([5]; Rat, 100 mg/kg PO, Dry Blend): 11.3 h
AUC0→last ([5]; Rat, 100 mg/kg PO, Dry Blend, 100 mg/kg): 7910 ng·h/mL
AUC0→last ([5]; Rat, 100 mg/kg PO, Dry Blend, listed as MP470 (free base), 100 mg/kg): 7900 ng·h/mL
bioavailability ([5]; in vivo, Rat, 100 mg/kg oral, dry powder blend, read-out: relative bioavailability as compared to the HCl salt): 8%

Cl.S=C(NCc1ccc2c(c1)OCO2)N1CCN(c2ncnc3c2oc2ccccc23)CC1 [MP470.HCl, 4-[1]benzofuro[3,2-d]pyrimidin-4-yl-N-(1,3-benzodioxol-5-ylmethyl)piperazine-1-carbothioamide hydrochloride]
pIC50 [6]: 5.16
pIC50 [7]: 5.10
Solubility [1, 11]: 3.28 µg/mL
Solubility [1, 12]: 31.1 µg/mL
pIC50 [8]: 6.05
Outcome: tumor growth ([3]; A459 lung cancer, MP470.HCl PO 50 mg/kg, qd × 21, corn oil, hydrochloride, 50 mg/kg): Dose dependency
half-life ([9]; both sexes, rats, daily oral dosing 28 days, read-out: half-lives): 2 to 8 h
severely toxic dose ([9]; female): > 600 mg/m2/d
severely toxic dose (STD) ([9]; female): higher than 100 mg/kg/d
severely toxic dose ([9]; male): > 1200 mg/m2/d
severely toxic dose (STD) ([9]; male): > 200 mg/kg/day
cardiotoxicity (histopathology) [9]: no evidence of cardiotoxicity in either sex
Increase in DNA damage (γ-H2AX) over control [4]: did not cause DNA damage
AUC0→last ([5]; Rat, 3 mg/kg IV bolus, TV-10): 18810 ng·h/mL
Cmax ([5]; Rat, 3 mg/kg IV bolus, TV-10): 8530 ng/mL
Tmax ([5]; Rat, 3 mg/kg IV bolus, TV-10): 0.02 h
AUC0→last ([5]; Rat, 100 mg/kg PO, Corn oil): 73350 ng·h/mL
Cmax ([5]; Rat, 100 mg/kg PO, Corn oil): 5270 ng/mL
Tmax ([5]; Rat, 100 mg/kg PO, Corn oil): 4.0 h
Cmax ([5]; Rat, 100 mg/kg PO, Dry Blend): 7190 ng/mL
Tmax ([5]; Rat, 100 mg/kg PO, Dry Blend): 9.5 h
AUC0→last [5, 13]: 94310 ng·h/mL
AUC0→last (μg · h/mL) [5, 13]: about 94 μg · h/mL
Tmax ([5]; Rat, 100 mg/kg orally, range over vehicles): 4.0 to 9.5 h
Cmax ([5]; in vivo, po, Rat, 100 mg/kg orally, range over vehicles, read-out: Cmax): 4600 to 7200 ng/mL
t½β ([5]; rat, in vivo, iv, 3 mg/kg): 0.36 h
MTD at 24 h ([10]; both sexes, po): 2000 mg/kg
Single oral dose NOEL ([10]; both, 24 h): 240 mg/kg
